Results on two molecules are retold here after patent US20250382344A1, “Soluble GLP1/GIP/NPY2 Receptor Triple Agonists” (Boehringer Ingelheim International GmH, priority 2024, published 2025).

One series deals with T1, hGIPR (Homo sapiens, UniProt P48546).
T1 construct: expressed in transfected cells; host or cells: CHO CRE-luciferase reporter cells
T1 sequence (P48546 22-466): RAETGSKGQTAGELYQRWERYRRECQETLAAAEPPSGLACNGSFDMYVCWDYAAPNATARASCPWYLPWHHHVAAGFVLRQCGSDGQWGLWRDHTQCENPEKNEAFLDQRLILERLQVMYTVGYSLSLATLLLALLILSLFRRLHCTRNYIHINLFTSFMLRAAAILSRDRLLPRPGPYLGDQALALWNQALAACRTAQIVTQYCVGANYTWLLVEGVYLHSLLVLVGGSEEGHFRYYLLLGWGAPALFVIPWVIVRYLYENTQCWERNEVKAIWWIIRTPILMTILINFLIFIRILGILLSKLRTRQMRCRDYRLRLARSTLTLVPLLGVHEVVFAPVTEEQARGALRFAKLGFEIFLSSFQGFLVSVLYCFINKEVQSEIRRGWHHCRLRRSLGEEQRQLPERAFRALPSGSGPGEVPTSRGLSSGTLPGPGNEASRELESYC
The series can be described thus: hGIPR CreLuc assay in 0.5% and 100% plasma (CHO CRE-luciferase reporter cells). It counts as cell-based. Background: A reporter such as luciferase makes a cellular process visible.

Series [1] in a line: Mouse PK after intravenous application. It is filed as in vivo. The conditions noted are these: plasma, male NMRI mice, intravenous 30-60 nmol/kg, non-compartmental analysis. The method, boiled down: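 Male NMRI mice (30–40 g) dosed 30-60 nmol/kg by tail vein in 50 mM phosphate buffer pH 7.4/3.5% mannitol. Saphenous EDTA blood sampled from conscious animals up to 56 h; plasma peptide quantified by LC-MS. Parameters from non-compartmental analysis of individual profiles.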

Series [2] is described as follows: Solubility in 0.1 M phosphate buffer at pH 7. It counts as physicochemical. The conditions noted are these: 0.1 M phosphate buffer at pH 7, 10 mg/mL final peptide concentration, shaking 2 hours at room temperature, peptides as TFA-salts; measured sample pH 6.5-7.0.
A further series has as its target T2, hGLP1R (Homo sapiens, UniProt P43220).
T2 construct: expressed in transfected cells; host or cells: HEK-293 CRE-luciferase reporter cells
Nature of the series: hGLP1R CreLuc assay in 0.5% and 100% plasma (HEK-293 CRE-luciferase reporter cells). It counts as cell-based. Particulars: HEK-293 reporter cells.

For the next series, the system named is Normal NMRI Mice. Nature of the series: Effect on acute food intake in normal NMRI mice. It is filed as in vivo. Particulars: male NMRI mice, single subcutaneous dose 100 nmol/kg, 24 hours food intake normalized to vehicle group. The procedure: Male NMRI mice were obtained from Janvier (Janvier Labs, France) or from Charles River (Charles River Research Models & Services Germany GmbH) at the age of 3 weeks. The animals get a microchip (Datamars, Slim Microchip T-SL) for individual identification after delivery. They were housed with 4 mice per cage under a 12/12 dark-light cycle, light off at 3 p.m. Room temperature was controlled to 21° C.+/−1° C. and humidity 60%+/−20%. Mice had ad libitum access to regular rodent chow (KLIBA Nafag 3040 or Altromin 1324, Brogaarden, Denmark) and tap water.
Latest transfer into the HM2-System of MBRose, Denmark (real-time monitoring system of food- and water intake) of the animals 5 days before study start, to allow acclimatization to experimental conditions. As the animals were uniquely identified with the microchips, each individual animal was identified by its own microchip upon entry and exit from the food channel via antennae. Randomization of the mice for each study group (n=8; age earliest 6 weeks old) was based on food intake (middle of last three days 24 h-interval) and bodyweight directly before start of the study. A vehicle treated (50 mM phosphate buffer pH 7.4 with 3.5% mannitol) group was included in each experiment. To have the same nutrition standard for each animal the food access was locked eight hours before dark phase. One hour before night, the animals were once treated subcutaneously with the test peptide. Food intake was reported hourly for a period of 24 hours.

Setting [3] is: 0.5% human plasma, read-out: hGIPR 0.5% hP.
Setting [4] is: 100% human plasma, read-out: hGIPR 100% hP.
[5] abbreviates: 0.5% human plasma, read-out: hGLP1R 0.5% hP.
[6] abbreviates: 100% human plasma, read-out: hGLP1R 100% hP.

Where two headings read alike, the source gives them in different places.

T2 sequence (P43220 24-463): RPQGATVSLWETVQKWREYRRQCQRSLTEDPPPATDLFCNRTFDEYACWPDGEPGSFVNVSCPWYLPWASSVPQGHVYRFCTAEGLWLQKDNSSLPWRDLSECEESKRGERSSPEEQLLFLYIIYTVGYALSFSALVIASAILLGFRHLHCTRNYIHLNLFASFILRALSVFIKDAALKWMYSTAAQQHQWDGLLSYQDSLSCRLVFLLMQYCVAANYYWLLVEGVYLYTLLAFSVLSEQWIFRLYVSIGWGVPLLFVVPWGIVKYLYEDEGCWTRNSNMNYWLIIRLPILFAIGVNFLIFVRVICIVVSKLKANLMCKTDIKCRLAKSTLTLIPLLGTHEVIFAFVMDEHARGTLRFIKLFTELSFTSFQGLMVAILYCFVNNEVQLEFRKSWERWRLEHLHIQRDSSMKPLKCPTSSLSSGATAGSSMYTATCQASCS

Regarding `CC[C@H](C)[C@H](NC(=O)[C@H](CC(C)C)NC(=O)[C@H](Cc1c[nH]cn1)NC(=O)[C@H](CCCNC(=N)N)NC(=O)[C@@H](NC(=O)[C@H](Cc1ccccc1)NC(=O)[C@H](C)NC(=O)C(C)(C)NC(=O)[C@H](CCC(N)=O)NC(=O)[C@H](C)NC(=O)[C@H](CCC(N)=O)NC(=O)[C@H](CCCCN)NC(=O)[C@H](CCC(=O)O)NC(=O)[C@H](CC(C)C)NC(=O)[C@](C)(CC(C)C)NC(=O)[C@@H](NC(=O)[C@H](CO)NC(=O)[C@H](Cc1ccc(O)cc1)NC(=O)[C@H](CC(=O)O)NC(=O)[C@H](CO)NC(=O)[C@@H](NC(=O)[C@H](Cc1ccccc1)NC(=O)[C@@H](NC(=O)CNC(=O)[C@H](CCC(=O)O)NC(=O)C(C)(C)NC(=O)[C@@H](N)Cc1ccc(O)cc1)[C@@H](C)O)[C@@H](C)O)[C@@H](C)CC)C(C)C)C(=O)N[C@@H](CC(N)=O)C(=O)N[C@@H](CCCCNC(=O)[C@@H](N)CCCCNC(=O)CC[C@H](NC(=O)CC[C@H](NC(=O)CC[C@H](NC(=O)CC[C@H](NC(=O)CC[C@H](NC(=O)CC[C@H](NC(=O)CCCCCCCCCCCCCCCCC(=O)O)C(=O)O)C(=O)O)C(=O)O)C(=O)O)C(=O)O)C(=O)O)C(=O)NC(C)(C)C(=O)N[C@H](C(=O)N[C@@H](CCCNC(=N)N)C(=O)N[C@@H](CCC(N)=O)C(=O)N[C@@H](CCCNC(=N)N)C(=O)N[C@@H](Cc1ccc(O)cc1)C(N)=O)[C@@H](C)O` [Compound 119, Y-Aib-E-G-T-F-T-S-D-Y-S-I-aMeL-L-E-K-Q-A-Q-Aib-A-F-V-R-H-L-I-N-K(1,3)-Aib-T-R-Q-R-Y-NH2.C18DA-gGlu-gGlu-gGlu-gGlu-gGlu-gGlu-eLys(1,2)], the EC50 on hGIPR (setting [3]) was determined as 0.1 nM; at hGIPR (setting [4]) it was 0.8 nM; at hGLP1R (setting [5]), 0.1 nM; at hGLP1R (setting [6]) it was 0.4 nM. Further, in series [1], the MRT worked out at 9.6 h. Also, in series [2], the solubility at 2 h was found to be 9000 µg/mL. In the series on Normal NMRI Mice, the “Acute Food Intake 24 hours 100 nmol/kg [% CTL]” value amounted to 34 % CTL.

As to `CC[C@H](C)[C@H](NC(=O)[C@H](CC(C)C)NC(=O)[C@H](Cc1c[nH]cn1)NC(=O)[C@H](CCCNC(=N)N)NC(=O)[C@@H](NC(=O)[C@H](Cc1ccccc1)NC(=O)[C@H](C)NC(=O)C(C)(C)NC(=O)[C@H](CCC(N)=O)NC(=O)[C@H](C)NC(=O)[C@H](CCC(N)=O)NC(=O)[C@H](CCCCN)NC(=O)[C@H](CCC(=O)O)NC(=O)[C@H](CC(C)C)NC(=O)[C@](C)(CC(C)C)NC(=O)[C@@H](NC(=O)[C@H](CO)NC(=O)[C@H](Cc1ccc(O)cc1)NC(=O)[C@H](CC(=O)O)NC(=O)[C@H](CO)NC(=O)[C@@H](NC(=O)[C@H](Cc1ccccc1)NC(=O)[C@@H](NC(=O)CNC(=O)[C@H](CCC(=O)O)NC(=O)C(C)(C)NC(=O)[C@@H](N)Cc1ccc(O)cc1)[C@@H](C)O)[C@@H](C)O)[C@@H](C)CC)C(C)C)C(=O)N[C@@H](CC(N)=O)C(=O)N[C@@H](CCCCNC(=O)[C@@H](N)CCCCNC(=O)CC[C@H](NC(=O)CC[C@H](NC(=O)CC[C@H](NC(=O)CC[C@H](NC(=O)CC[C@H](NC(=O)CC[C@H](NC(=O)CCCCCCCCCCCCCCCCCCC(=O)O)C(=O)O)C(=O)O)C(=O)O)C(=O)O)C(=O)O)C(=O)O)C(=O)NC(C)(C)C(=O)N[C@H](C(=O)N[C@@H](CCCNC(=N)N)C(=O)N[C@@H](CCC(N)=O)C(=O)N[C@@H](CCCNC(=N)N)C(=O)N[C@@H](Cc1ccc(O)cc1)C(N)=O)[C@@H](C)O` [Compound 150, Y-Aib-E-G-T-F-T-S-D-Y-S-I-aMeL-L-E-K-Q-A-Q-Aib-A-F-V-R-H-L-I-N-K(1,3)-Aib-T-R-Q-R-Y-NH2.C20DA-gGlu-gGlu-gGlu-gGlu-gGlu-gGlu-eLys(1,2)], the EC50 came to 0.1 nM at hGIPR (setting [3]), 2.8 nM on hGIPR (setting [4]), 0.5 nM at hGLP1R (setting [5]) and 1.7 nM at hGLP1R (setting [6]). Besides, in series [1], the MRT turned out to be 15.9 h. Further, the solubility at 2 h in series [2] came to 4800 µg/mL. In addition, the “Acute Food Intake 24 hours 100 nmol/kg [% CTL]” value in the series with Normal NMRI Mice worked out at 46 % CTL.

One may read the MRT as the average time that molecules of a dose stay in the body. What is called solubility is the dissolved amount per volume that the medium holds.
